In experiment [1] the test system is Platelet aggregation induced with PAF. Put plainly: Test 1: inhibition of PAF-induced platelet aggregation in platelet rich plasma. In kind it is cell-based, Japanese white rabbit. Conditions: Oryctolagus cuniculus, rabbit PRP, 5×10^5 cells/mm^3, final concentration of PAF usually 20 nM. How it is done:
(Inhibition of platelet aggregation)
Blood was collected through the polyethylene catheter introduced into the carotid artery of male Japanese white rabbit (2.5 to 3 kg body weight). The blood was anticoagulated with 1 volume of 3.8% sodium citrate to 9 volume of blood. Platelet rich plasma (PRP) was prepared by centrifugation of the blood at 150 g for 10 minutes at room temperature. The PRP was diluted with platelet poor plasma obtained by further centrifugation of the blood at 1,000 g for 20 minutes. The platelet number was 5×10^5 cells/mm^3. Platelet aggregation induced with PAF was measured by the nephelometric technique of Born and Cross [cf. Journal of Physiology 168, 178-188 (1963)] using HKK Hema tracer (trade name, made by Niko Bioscience Inc.).
Activities of inhibitors were expressed as IC50 value, i.e. concentrations required to inhibit the platelet aggregation response by 50%. The final concentration of PAF was usually 20 nM.

The test system of experiment [2] is vascular permeability increase induced by intradermally injected PAF. Put plainly: Test 4: inhibition of vascular permeability increase induced by intradermally injected PAF in mice (test compound orally). The class given is in vivo, ddY mice. The conditions noted are these: 100 mg/kg orally, 30 minutes before Evans blue; PAF 50 ng intradermally; 30 minutes after PAF. How it is done:
(§1) (Inhibition of vascular permeability increase induced by intradermally injected PAF in mice)
Five-week old male ddY mice were used. The test compound suspended in 0.5 methylcellulose suspension was administered orally 30 minutes before the Evans blue injection (0.125% solution in saline, 10 ml/kg, i.v.).
PAF (50 ng, 50 μl per site) was injected intradermally to the depilated back of the mice 5 minutes after the Evans blue injection.
(§2) The inhibitory activity of the test compound was monitored 30 minutes after the PAF injection by assessment of blueing reaction with Evans blue dye in mice skin.

Experiment [3] concerns synthetic PAF induced hypotension. Put plainly: Test 2: inhibition of hypotensive effect induced by intravenously injected PAF in rats. The class given is in vivo, Sprague-Dowley rats. The conditions noted are these: 3 minutes before PAF (1 μg/kg i.v.), anesthetized rats. The method, then: (Inhibition of hypotensive effect induced by intraveneously injected PAF in rats)
Seven-week old Sprague-Dowley rats were anesthetized with urethane (1 g/kg, i. p.). Catheters were introduced into the femoral artery and vein for the measurement of arterial pressure and the administration of the test compound, respectively. Blood pressure was recorded from femoral artery using a transducer coupled to the Biophysiograph 180 System (San-Ei Instrument Co., Ltd.). Inhibitory activity of the test compound was shown in the following Table as the inhibition percentage of the synthetic PAF induced hypotension. PAF was administered intravenously at a dose of 1 μg/kg. The test compound was administered intravenously 3 minutes before PAF injection.

Experiment [4] deals with vascular permeability increase induced by intradermally injected PAF. Description: Test 3: inhibition of vascular permeability increase induced by intradermally injected PAF in mice (test compound i.p.). In kind it is in vivo, ddY mice. The conditions noted are these: 10 mg/kg i.p., 15 minutes before Evans blue; PAF 50 ng intradermally; 30 minutes after PAF. The method, then:
as §1
Six-week old male ddY mice were used. The test compound was administered intraperitoneally 15 minutes before the Evans blue injection (0.125% solution in saline, 0.2 ml/mouse, i.v.).
PAF (50 ng, 50 μl per size) was injected intradermally to the depilated back of the mice 5 minutes after the Evans blue injection.
as §2

Molecules are shown by their SMILES. ≈ marks a conversion by molar mass, not a printed value.

The IC50 is the concentration that gives 50% inhibition. A low value points to greater potency. Consider `CSCCCC1NC(=O)[C@@H](Cc2cn(C)c3ccccc23)NC1=O` (single isomer, unassigned) [Test compound 5], for which inhibition in experiment [1] was half-maximal at 0.55 µg/mL (≈ 1.59 µM) (IC50).
Still for that read-out and setting: in the case of `CSCC[C@H]1NC(=O)[C@@H](Cc2cn(C)c3ccccc23)NC1=O` [Example 1, (3R,6R)-3-(1-methylindol-3-ylmethyl)-6-(2-methylthioethyl)piperazine-2,5-dione] it was 0.71 µg/mL (≈ 2.14 µM); in that of `CSCC[C@@H]1C(=O)N(C)[C@H](Cc2cn(C)c3ccccc23)C(=O)N1C` [Example 4, (3R,6R)-1,4-dimethyl-3-(1-methylindol-3-ylmethyl)-6-(2-methylthioethyl)piperazine-2,5-dione], 0.84 µg/mL (≈ 2.34 µM).
On to `C[C@H](c1cn(C)c2ccccc12)[C@H]1NC(=O)[C@@H](Cc2ccccn2)NC1=O` [Example 18, (3R,6R)-3-[(R)-1-(1-methylindol-3-yl)ethyl]-6-(2-pyridylmethyl)piperazine-2,5-dione], for which 0.16 µg/mL (≈ 0.441 µM) corresponded to half-maximal inhibition in experiment [1] (IC50). Moreover, in experiment [2], the “Inhibition of vascular permeability increase (%)” value came to 56.7%.
In experiment [1], `CC(C)C[C@H]1NC(=O)[C@@H](Cc2cn(C)c3ccccc23)NC1=O` [Test compound 2] came in with a half-maximal inhibitory concentration (IC50) of 1.04 µg/mL (≈ 3.32 µM). The “Inhibition maximum (%) of hypotensive effect” value in experiment [3] (10 mg/kg i.v.) is listed as 75%. In experiment [4], the “Inhibition of vascular permeability increase (%)” value is reported as 30%.
As to `Cn1cc(C[C@H]2NC(=O)[C@@H](Cc3cn(C)c4ccccc34)NC2=O)c2ccccc21` [Test compound 7], in experiment [1], the IC50 came out at 1.2 µg/mL (≈ 3 µM).
Same read-out and setting: in the case of `CCCC[C@H]1NC(=O)[C@@H](Cc2cn(C)c3ccccc23)NC1=O` [Test compound 8] it was 0.58 µg/mL (≈ 1.85 µM).
Turning to `CSCC[C@H]1NC(=O)[C@@H]([C@H](C)c2cccc3ccccc23)NC1=O` [Test compound 9], the IC50 in experiment [1] was found to be 0.061 µg/mL (≈ 0.178 µM). In addition, in experiment [3] (3 mg/kg i.v.), the “Inhibition maximum (%) of hypotensive effect” value worked out at 51%. In experiment [4], the “Inhibition of vascular permeability increase (%)” value worked out at 40%.
Compound `CSCC[C@H]1NC(=O)[C@@H](Cc2cccc3ccccc23)NC1=O` [Test compound 10] had a half-inhibitory concentration (IC50) in experiment [1] of 0.48 µg/mL (≈ 1.46 µM).
The same measure, in the same setting: in the case of `CSCC[C@H]1NC(=O)[C@@H](Cc2c3ccccc3cc3ccccc23)NC1=O` [Test compound 11] it was 0.58 µg/mL (≈ 1.53 µM).
On the same count and under the same terms, the value for `CSCC[C@H]1NC(=O)[C@@H]([C@@H](C)c2cccc3ccccc23)NC1=O` [Test compound 12] was 0.65 µg/mL (≈ 1.9 µM); that for `CSCC[C@H]1NC(=O)[C@@H](Cc2c(-c3ccccc3)n(C)c3ccccc23)NC1=O` [Test compound 13] was 0.72 µg/mL (≈ 1.77 µM); that for `CCC[C@H]1NC(=O)[C@@H](Cc2cn(C)c3ccccc23)NC1=O` [Test compound 14] was 0.93 µg/mL (≈ 3.11 µM).
Same read-out and setting: in the case of `CSCC[C@@H]1C(=O)N(C)[C@H]([C@H](C)c2cccc3ccccc23)C(=O)N1C` [Test compound 16] it was 0.59 µg/mL (≈ 1.59 µM).

(Values after patent US4806538A, “Piperazine compound as PAF-antagonist” (Fujisawa Pharmaceutical Co., Ltd., priority 1984, dated 1989).)
